For one data set, the system named is ERK. As to the kind of experiment: ERK phosphorylation in C6 glial cells (Western blot). Type of data set: cell-based, Rat. The procedure:
(§1) Materials and Methods. Cell culture. Rat glioma cells (C6; American Type Culture Collection, Manassas, Va.) were propagated in Dulbecco's Modified Eagle Medium (DMEM; Invitrogen, Carlsbad, Calif.) supplemented with 10% charcoal-stripped fetal bovine serum (FBS; Hyclone, Logan, Utah), and maintained at 37° C. in a humidified environment containing 5% CO2.
(§2) Treatment of cultures. C6 glial cells were treated with either vehicle control (DMSO, 0.1%), dihydrotestosterone (DHT) (Steraloids Inc., Newport, R.I.), or 5α-androstan-17β-ol-3-one-3-o-carboxymethyloxime:BSA (DHT-BSA) (Steraloids Inc.) at the concentrations indicated for 30 minutes, to assess the effects of these hormones on ERK and Akt phosphorylation. […] Inhibition of the classical androgen receptor was achieved using the androgen receptor antagonist, Flutamide (3 μM; Sigma-Aldrich, St. Louis, Mo.), which was applied 30 minutes prior to treatment with the hormone. Inhibition of MEK, the signaling protein upstream of ERK was achieved using U0126 (10 μM; Cell Signaling, Beverly, Mass.), also pre-incubated for a period of 30 minutes prior to hormone administration.
(§3) Western blot analysis. Following treatment with hormone and/or inhibitor, C6 glial cells were harvested into lysis buffer containing protease and phosphatase inhibitors as described previously (25). Following homogenization, samples were centrifuged at 99,000×g for 15 min at 4° C., and the resulting supernatants were evaluated for total protein concentrations using the BioRad DC (Biorad Labs, Hercules, Calif.) protein assay kit [based on the method of Lowry; (26)]. Sample lysates were loaded onto a sodium dodecyl sulfate (SDS), 10% polyacrylamide gel (PAGE), subjected to electrophoresis, and subsequently transferred onto a polyvinylidene difluoride membrane (PVDF; 0.22 μm pore size, BioRad). The membrane was blocked for 6 hrs with a 3% BSA in 0.2% Tween-containing TBS (TBS-T) solution prior to application of the primary antibody. The following primary antibodies were used: for the detection of the androgen receptor, anti-AR (C-19) (1:200; Santa Cruz Biotechnology); for the detection of the phosphorylated form of Akt: rabbit anti-phospho-Akt (Ser473; 1:1000; Cell Signaling, Beverly, Mass.), for the detection of total Akt, anti Akt (1:1000; Cell Signaling); for the detection of the phosphorylated form of ERK1/2, rabbit anti phospho-p44/42 Map Kinase (Thr202/Tyr204, 1:1000; Cell Signaling); for the detection of total ERK1 and ERK2, goat anti-ERK1 (C-16, 1:500)/goat anti-ERK2 (C-14, 1:500; Santa Cruz Biotechnology). Antibody binding to the membrane was detected using a secondary antibody (either goat anti-rabbit or rabbit anti-goat) conjugated to horseradish peroxidase (1:20,000; Pierce, Rockford, Ill.) and visualized using enzyme-linked chemiluminescence (ECL, Amersham, Arlington Heights, Ill.) with the aid of the UVP imaging system. Phospho-Akt and phosphoERK blots were re-probed with anti-Akt or anti ERK1/2 antibodies to ensure equal loading across lanes.
(§4) Statistical Analysis. Densitometric analysis of the Western blots was conducted using the LabWorks Image Acquisition and Analysis Software (UVP Inc., Upland, Calif.). Densitometric data from at least three independent studies was subjected to an analysis of variance (ANOVA), followed by a Tukey's post hoc analysis for the assessment of group differences, and presented as a bar graph depicting the average±S.E.M., using the GraphPad Software (San Diego, Calif.).
(In general: In western blotting, separated proteins are transferred to a membrane and probed.)

The subject of the next data set is Akt. As to the kind of experiment: Akt phosphorylation in C6 glial cells (Western blot). Type of data set: cell-based, Rat. The procedure:
as §1, §2, §3, §4

Data set [1] concerns membrane-associated androgen receptor. As to the kind of experiment: Flow cytometry binding of DHT-BSA-FITC to the cell surface of live C6 glial cells. On the set-up: species or system Rat. The note with it: 20-fold molar excess of DHT (1 mM) vs DHT-BSA-FITC 50 μM. On the technique in general: Flow cytometry measures light scatter and fluorescence of single cells or particles in a stream.
Description: Flow cytometry. Briefly, C6 glial cells (10^6 cells) were pipetted into a 1.5 ml micro-centrifuge tube, centrifuged at 250×g for 5 minutes and washed twice with 1 ml of PBS. […] In parallel, cells were re-suspended in PBS treated with BSA-FITC (50 μM; Sigma Aldrich), serving as the control for the detection of “non-specific binding”. Following this incubation period, the cells were washed twice in PBS and resuspended in 500 μl of PBS. The labeled C6 glial cells were injected into an EPICS XL-MCL flow cytometer (Beckman Coulter) and analyzed with System 2 software (Beckman Coulter).
In order to determine if DHT-BSA binds to a specific site on the cell surface (indicative of a membrane-associated androgen receptor), the binding of the fluorescently-labeled DHT-BSA (DHT-BSA-FITC) in C6 glial cells was evaluated. Non-“fixed” and non-permeabilized C6 glial cells were treated with DHT-BSA-FITC (50 μM) in the presence or absence of 20-fold molar excess of DHT (1 mM). Incubation of the cells with BSA-FITC alone for 30 min at 4° C. provided a measure of non-specific binding.
To determine if DHT-BSA binds to surface (plasma membrane) receptors, C6 glial cells were treated with DHT-BSA-FITC (50 μM) for 30 min. in the presence/absence of a 20-fold molar excess of DHT (1 mM). Samples were washed and analyzed using flow cytometric analysis.

Data set [2] concerns hippocampal neuron damage. The note with it: kainic acid model, reference 33; cited from earlier work.
A further data set concerns C6 glial cells. Description: LDH release / iodoacetic acid (IAA) induced cell death of C6 glial cells. Format: cell-based, Rat. The procedure: Triton-X (Tr-X, 0.9%)-induced lysis of cells served as the positive control for LDH release. Estradiol (E2, 10 μM) treatment of cells served as the positive control for protection against IAA-induced LDH release. Data are representative of two independent studies. The effect shown in FIG. 10, is in sharp contrast to the protective effect of DHT reported previously, and supports further the observation that two, potentially competing, mechanisms regulate the effects of androgens on cell viability. In all studies that used the membrane impermeable androgen, the DHT-BSA preparation was filtered using a 10 kDa nominal cut-off column prior to application of this steroid hormone conjugate, to ensure that the effects of DHT-BSA were not attributed to, or confounded by the presence of free (unconjugated) DHT. Stevis, et al., (Stevis P E, Deecher D C, Suhadolnik L, Mallis L M, Frail D E 1999 Differential effects of estradiol and estradiol-BSA conjugates. Endocrinology 140:5455-8) have described that the commercially available preparation of estradiol-conjugated to BSA (E2-BSA), for example, was contaminated with some free estradiol.
In general terms: LDH in the medium is a marker of cell lysis.

As for `C[C@]12CCC(=O)C[C@@H]1CC[C@@H]1[C@@H]2CC[C@]2(C)[C@@H](O)CC[C@@H]12` [DHT, dihydrotestosterone], in the data set with ERK, the “ERK phosphorylation at higher concentrations” value was “did not result in an increase in ERK phosphorylation” and the “increase in the phosphorylation of ERK” value is on record as 2.5 fold. Moreover, the “Akt phosphorylation (phospho-Akt levels)” value with Akt is recorded as “induced an increase in Akt phosphorylation”. The “displacement of DHT-BSA-FITC labeling” value in data set [1] is given as “displaced”. In addition, in data set [2], the “amount of hippocampal neuron damage” value is recorded as “reduce the amount of hippocampal neuron damage”.

Turning to Pertussis toxin, in the data set with ERK (50 μM, data not shown), the “effect of Gi/o inhibitor on DHT-BSA-mediated suppression of ERK phosphorylation” value is on record as “failed to prevent”. The “effect of Gi/o inhibitor on DHT-BSA-mediated suppression of Akt phosphorylation” value in the data set on Akt (50 μM, data not shown) is listed as “failed to prevent”.

As to `CC(C)C(=O)Nc1ccc([N+](=O)[O-])c(C(F)(F)F)c1` [Flutamide], in the data set with Akt (Flutamide 3 μM), the “effect of AR antagonist on DHT-induced Akt phosphorylation” value is on record as “failed to inhibit”.

As to “5α-androstan-17β-ol-3-one-3-o-carboxymethyloxime:BSA [DHT-BSA]”, the “ERK phosphorylation (phospho-ERK levels relative to sham control)” value with ERK (0.01, 0.1, 1.0 μM, 30 min, particularly at 100 nM and 1 μM) is given as “substantial suppression of ERK phosphorylation”. The “concentration at which the inhibitory effect on ERK phosphorylation becomes evident” value in the data set with ERK (30 min, C6 glial cells) turned out to be 0.1 µM. Besides, in the data set on ERK (co-applied with DHT 10 nM, 30 min, 0.01, 0.1, 1 μM, dose dependent), the “effect on DHT-induced ERK phosphorylation” value is listed as “blocked the effect of DHT”. Further, the “Akt phosphorylation (phospho-Akt levels relative to sham control)” value in the data set on Akt (0.01, 0.1 and 1 μM, 30 min) is “dose-dependent suppression of Akt phosphorylation”. Also, in the data set with Akt (30 min, C6 glial cells), the “concentration at which the inhibitory effect on Akt phosphorylation becomes evident” value is 0.1 µM. For the same compound, the “cellular damage as assessed by LDH release into the media” value in the data set on C6 glial cells (increasing concentrations, alone) is “did not result in cellular damage”. Moreover, the “toxicity associated with IAA (LDH release)” value in the data set on C6 glial cells (with low level insult IAA 10 μM) was “significantly increased the toxicity associated with IAA”.

On to `C[C@]12CCC(=NOCC(=O)O)C[C@@H]1CC[C@@H]1[C@@H]2CC[C@]2(C)[C@@H](O)CC[C@@H]12` [DHT:CMO, 5α-androstan-17β-ol-3-one-3-o-carboxymethyloxime], for which, in the data set on ERK (0.01, 0.1, 1 μM, 30 min), the “ERK phosphorylation by CMO-modified DHT” value was “did not alter the ability of the androgen to elicit ERK phosphorylation”.

`N#CC(=C(/N)Sc1ccccc1N)/C(C#N)=C(\N)Sc1ccccc1N` [U0126]: in the data set on ERK, the “effect of MEK1/2 inhibitor on DHT-induced ERK phosphorylation” value is recorded as “blocked”.
